Experimental findings from patent publication US10662138B2, “Herbicidal propynyl-phenyl compounds” (Syngenta Participations AG, priority 2014, dated 2020) are described below.

Holding throughout (assay type): in vivo
One assay concerns Abutilon theophrasti. Nature of the assay: Glasshouse assay for herbicidal activity, post-emergence, ABUTH. Particulars: Abutilon theophrasti, 312 h, visual 13 days after application, 100%=total damage, read-out: Percentage phytotoxicity ABUTH. The procedure: (§1) Seeds of a variety of test plant species were sown in standard soil ** in pots. After cultivation for one day (pre-emergence) or after 8 days cultivation (post-emergence) under controlled conditions in a glasshouse (at 24/16° C., day/night; 14 hours light; 65% humidity), the plants were sprayed with an aqueous spray solution derived from the formulation of the technical active ingredient (the test herbicide) in acetone/water (50:50) solution containing 0.5% Tween 20 (polyoxyethylene sorbitan monolaurate, CAS Reg. No. 9005-64-5). The test plants were then grown on under controlled conditions in a glasshouse (at 24/16° C., day/night; 14 hours light; 65% humidity) and watered twice daily. 13 Days after application of the test herbicide, for pre- and post-emergence, the test was evaluated visually for percentage phytotoxicity to each plant (where 100%=total damage to plant; 0%=no damage to plant). Generally, each test herbicide is only tested on 1 plant per plant species for each application rate tested and for each application timing. The “standard soil” in Biological Example 1 is usually a “sand” or “sandy loam” type of soil. Biological Example 1—Post-Emergence Application—Herbicidal Activity Results (Percentage Phytotoxicity) Dicotyledonous weeds: ABUTH=Abutilon theophrasti; AMARE=Amaranthus retroflexus. Grassy monocotyledonous weeds: SETFA=Setaria faberi; ALOMY=Alopecurus myosuroides; ECHCG=Echinochloa crus-galli; ZEAMX=Zea mays (corn, maize, e.g. volunteer corn).

The next assay deals with Amaranthus retroflexus. Briefly: Glasshouse assay for herbicidal activity, post-emergence, AMARE. Particulars: Amaranthus retroflexus, 312 h, visual 13 days after application, 100%=total damage, read-out: Percentage phytotoxicity AMARE. The method, then: as §1
In the next assay the test system is Setaria faberi. Briefly: Glasshouse assay for herbicidal activity, post-emergence, SETFA. To be noted: Setaria faberi, 312 h, visual 13 days after application, 100%=total damage, read-out: Percentage phytotoxicity SETFA. The procedure: as §1
The next assay concerns Alopecurus myosuroides. Briefly: Glasshouse assay for herbicidal activity, post-emergence, ALOMY. Particulars: Alopecurus myosuroides, 312 h, visual 13 days after application, 100%=total damage, read-out: Percentage phytotoxicity ALOMY. The procedure: as §1
A further assay has as its system Echinochloa crus-galli. Briefly: Glasshouse assay for herbicidal activity, post-emergence, ECHCG. Particulars: Echinochloa crus-galli, 312 h, visual 13 days after application, 100%=total damage, read-out: Percentage phytotoxicity ECHCG. The procedure: as §1
For assay [1], the system named is Zea mays (corn, maize, e.g. volunteer corn). Briefly: Glasshouse assay for herbicidal activity, post-emergence, ZEAMX. Particulars: Zea mays, 312 h, visual 13 days after application, 100%=total damage, read-out: Percentage phytotoxicity ZEAMX. The procedure: as §1

Take `CC#Cc1ccc(C2C(=O)C3CCC(C3)C2=O)c(OC(F)F)c1` (stereo not drawn) [Compound A5]: the pest or weed control at 30 g/ha worked out at 0% with Abutilon theophrasti; 0% in the assay with Amaranthus retroflexus; 60% in the assay with Setaria faberi; 50% in the assay with Alopecurus myosuroides; 90% with Echinochloa crus-galli; 100% in assay [1]. For the same compound, the pest or weed control at 250 g/ha with Abutilon theophrasti turned out to be 0%; in the assay with Amaranthus retroflexus, 0%; with Setaria faberi, 90%; with Alopecurus myosuroides it was 80%; in the assay with Echinochloa crus-galli, 100%; in assay [1], 100%.

With `CC#Cc1cc(OC)c(C2C(=O)C3CCC(C3)C2=O)c(OC)c1` (stereo not drawn) [Compound A7], the pest or weed control at 30 g/ha turned out to be 0% in the assay on Abutilon theophrasti; 0% with Amaranthus retroflexus; 100% in the assay on Setaria faberi; 90% with Alopecurus myosuroides; 100% with Echinochloa crus-galli; 100% in assay [1]. Moreover, the pest or weed control at 250 g/ha in the assay on Abutilon theophrasti is 10%; in the assay on Amaranthus retroflexus, 0%; in the assay on Setaria faberi it was 100%; in the assay on Alopecurus myosuroides it was 100%; in the assay with Echinochloa crus-galli, 100%; in assay [1], 100%.

On to `CC#Cc1ccc(C2C(=O)C3CCC(C3)C2=O)c(OC(F)(F)F)c1` (stereo not drawn) [Compound A8], for which the pest or weed control at 250 g/ha worked out at 80% in the assay on Abutilon theophrasti; 10% with Amaranthus retroflexus; 100% with Setaria faberi; 100% in the assay on Alopecurus myosuroides; 100% in the assay on Echinochloa crus-galli; 100% in assay [1].

Take `CC#Cc1ccc(C2C(=O)CC(CCSC)CC2=O)c(OC)c1` (stereo not drawn) [Compound A9]: the pest or weed control at 30 g/ha is 20% in the assay on Abutilon theophrasti; 0% in the assay with Amaranthus retroflexus; 80% in the assay with Setaria faberi; 30% in the assay on Alopecurus myosuroides; 80% in the assay on Echinochloa crus-galli; 90% in assay [1]. Further, the pest or weed control at 250 g/ha with Abutilon theophrasti was 40%; with Amaranthus retroflexus it was 20%; in the assay with Setaria faberi, 90%; with Alopecurus myosuroides it was 90%; with Echinochloa crus-galli, 90%; in assay [1], 100%.

Regarding `CC#Cc1ccc(C2C(=O)CCCC2=O)c(OC)c1` [Compound A10], the pest or weed control at 30 g/ha with Abutilon theophrasti turned out to be 0%; in the assay with Amaranthus retroflexus, 10%; in the assay on Setaria faberi, 60%; with Alopecurus myosuroides it was 0%; in the assay on Echinochloa crus-galli, 20%; in assay [1], 90%. The pest or weed control at 250 g/ha is 10% in the assay with Abutilon theophrasti; 20% with Amaranthus retroflexus; 70% with Setaria faberi; 70% in the assay on Alopecurus myosuroides; 30% in the assay on Echinochloa crus-galli; 90% in assay [1].

With `CC#Cc1cc(OC)c(C2C(=O)CCCC2=O)c(OC)c1` [Compound A11, 2-(2,6-dimethoxy-4-prop-1-ynyl-phenyl)cyclohexane-1,3-dione], the pest or weed control at 30 g/ha in the assay with Abutilon theophrasti was found to be 0%; with Amaranthus retroflexus it was 10%; with Setaria faberi, 100%; in the assay on Alopecurus myosuroides it was 70%; in the assay on Echinochloa crus-galli it was 100%; in assay [1] it was 100%. Also, the pest or weed control at 250 g/ha in the assay on Abutilon theophrasti is 0%; with Amaranthus retroflexus, 30%; with Setaria faberi, 100%; with Alopecurus myosuroides, 90%; with Echinochloa crus-galli, 100%; in assay [1], 100%.

With `CC#Cc1ccc(C2C(=O)CC3(CCOCC3)CC2=O)c(OC)c1` [Compound A12], the pest or weed control at 30 g/ha in the assay with Abutilon theophrasti was determined as 0%; with Amaranthus retroflexus it was 0%; in the assay on Setaria faberi, 100%; in the assay on Alopecurus myosuroides, 90%; with Echinochloa crus-galli it was 100%; in assay [1], 100%. Further, the pest or weed control at 250 g/ha in the assay on Abutilon theophrasti turned out to be 20%; in the assay with Amaranthus retroflexus it was 30%; in the assay with Setaria faberi, 100%; in the assay on Alopecurus myosuroides it was 100%; in the assay with Echinochloa crus-galli, 100%; in assay [1], 100%.

For the compound `CC#Cc1ccc(C2C(=O)C3CCC(C3)C2=O)c(OCCOC)c1` (stereo not drawn) [Compound A15, 3-[2-(2-methoxyethoxy)-4-prop-1-ynyl-phenyl]bicyclo[3.2.1]octane-2,4-dione], the pest or weed control at 30 g/ha in the assay with Abutilon theophrasti came to 0%; in the assay with Amaranthus retroflexus it was 0%; with Setaria faberi, 50%; in the assay on Alopecurus myosuroides, 10%; in the assay with Echinochloa crus-galli, 10%; in assay [1], 40%. Also, the pest or weed control at 250 g/ha in the assay with Abutilon theophrasti came to 0%; in the assay with Amaranthus retroflexus it was 0%; in the assay on Setaria faberi, 80%; in the assay with Alopecurus myosuroides it was 20%; with Echinochloa crus-galli, 40%; in assay [1], 80%.

In the case of `CC#Cc1ccc(C2C(=O)C3CCC(C3)C2=O)c(CCC)c1` (stereo not drawn) [Compound A16, 3-(2-propyl-4-prop-1-ynyl-phenyl)bicyclo[3.2.1]octane-2,4-dione], the pest or weed control at 250 g/ha is 0% in the assay with Abutilon theophrasti; 0% with Amaranthus retroflexus; 100% with Setaria faberi; 100% in the assay on Alopecurus myosuroides; 100% with Echinochloa crus-galli; 100% in assay [1].

Take `CC#Cc1ccc(C2C(=O)C3CCC(C3)C2=O)c(CC)c1` (stereo not drawn) [Compound A17]: the pest or weed control at 250 g/ha turned out to be 50% with Abutilon theophrasti; 0% in the assay on Amaranthus retroflexus; 90% in the assay with Setaria faberi; 100% in the assay with Alopecurus myosuroides; 100% in the assay with Echinochloa crus-galli; 100% in assay [1].

On to `CC#Cc1ccc(C2=C(OC(C)=O)C3CCC(C3)C2=O)c(OC)c1` (stereo not drawn) [Compound P1, [3-(2-methoxy-4-prop-1-ynyl-phenyl)-4-oxo-2-bicyclo[3.2.1]oct-2-enyl] acetate], for which the pest or weed control at 250 g/ha amounted to 10% in the assay on Abutilon theophrasti; 20% in the assay with Amaranthus retroflexus; 90% with Setaria faberi; 100% with Alopecurus myosuroides; 100% in the assay with Echinochloa crus-galli; 100% in assay [1].

Take `C#CCOC1=C(c2ccc(C#CC)cc2OC)C(=O)C2CCC1C2` (stereo not drawn) [Compound P2, 3-(2-methoxy-4-prop-1-ynyl-phenyl)-2-prop-2-ynoxy-bicyclo[3.2.1]oct-2-en-4-one]: the pest or weed control at 250 g/ha in the assay on Abutilon theophrasti stood at 0%; with Amaranthus retroflexus, 0%; in the assay on Setaria faberi it was 80%; in the assay on Alopecurus myosuroides, 70%; in the assay on Echinochloa crus-galli it was 90%; in assay [1], 100%.
